# Measurements taken from US6207677A, “Piperidine derivatives having anxiolytic effect” (H. Lundbeck A/S, priority 1991, dated 2001).
# Target: sigma receptors
# Assay: Inhibition of 3H-DTG binding to sigma receptors in rat brain in vitro
# Settings: 2 nM 3H-DTG, rat brain without cerebellum, 25° C., 20 min
# Description: INHIBITION OF 3H-DTG BINDING TO SIGMA RECEPTORS IN RAT BRAIN IN VITRO
# By this method the inhibition by drugs of the binding of 2 nM ^3 H-DTG (1,3,di-o-tolyl guanidine) to sigma receptors in homogenates or membranes from rat brain without cerebellum is determined in vitro as modified from Weber et al. Proc. Natl. Acad. Sci. 1986, 83,8784.
# Homogenate: Rats (150-250 g) are decapitated and the brains (without cerebellum) quickly removed and placed on ice, weighed and homogenized in 100 vol ice-cold (0° C.) 50 mM Tris-buffer (pH 7.7) in an ethanol rinsed glass/teflon homogenizer at 0° C. and kept on ice until use.
# P2-membranes: Brains are homogenized in 10 vol 0.32 M sucrose in an ethanol rinsed glass/teflon homogenizer with 10 strokes up and down. The homogenate is centrifuged for 10 min at 900×gm at 4° C. The supernatant is decanted and centrifuged for 20 min at 50,000 gm at 4° C. The resulting pellet is resuspended in 10 vol ice-cold […] Tris-buffer (pH 7.7) and incubated for 30 min. at 37° C. The membrane suspension is then centrifuged for further 20 min. at 50,000 gm at 4° C. The pellet is resuspended in 50 vol. of ice-cold Tris-buffer and used immediately.
# 0.5 ml 50 mM Tris-buffer (pH 7.7), 0.25 ml displacer (6×100 μM DTG, 6× [test compound], or Tris-buffer), and 0.25 ml 6×2 nM. ^3 H-DTG are mixed into 5 ml s plastic test tubes and kept at 4° C. until use. The binding reaction is initiated by mixing 0.5 ml tissue suspension into this solution and incubate at 25° C. for 20 min. Glass fiber filters (Whatman GF/B) are placed on the filter machine which is then closed tightly. Just before filtration vacuum is applied, and the filters washed with 0.1% PEI solution from a spray bottle followed by one wash with Tris-buffer.
# The binding reaction is stopped by filtration of the assay mixture at reduced pressure (750 mbar) followed by further 3 washes with 5 ml ice-cold Tris-buffer. The filters are then placed in counting vials and 4 ml scintillation solution added. The vials are counted in a Beckmann scintillation counter.
# 50 mM Tris-buffer pH 7.7: 7.38 g Trizma--7.7 plus distilled H2 O ad 1 liter. 100 ml 10% polyethylenimine (PEI): 100 ml dest. H2 O is added to approx. 20 g 50% PEI which is solubilized by stirring and heating. Diluted (1+99) before use. 6×2 nM ^3 H-DTG: The exact volume depends on the actual concentration of the batch, but is made as close as possible to 12 nM. The containers for the radioactive solution is rinsed in 96% ethanol before use.
# ^3 H-DTG was obtained from NEN Research Products, Du Pont Denmark. Specific activity 62.3 Ci/mmol.
# The known sigma receptor ligands BMY 14802 and rimcazole were included in the test for comparison purposes.
row,SMILES,IC50 [nM]
1,"c1ccc(OCCCN2CCC3(CC2)OCc2ccccc23)cc1 [Compound 2k, 1'-(3-Phenoxy-1-propyl)spiro[isobenzofuran-1(3H),4'-piperidine]]",0.19
2,"c1ccc(Cn2cc(CCCCN3CCC4(CC3)OCc3ccccc34)c3ccccc32)cc1 [Compound 2hh, 1'-[4-(1-Benzyl-3-indolyl)-1-butyl]-spiro[isobenzofuran-1(3h),4'-piperidine]]",0.02
3,"COc1ccccc1C1CCN(CCCCC2CNc3ccccc32)CC1 (stereo not shown) [Compound 13d, 2,3-Dihydro-3-[4-(4-(2-methoxyphenyl)-1-piperidinyl)-1-butyl]indol]",2.1
4,"Clc1cccc(Cl)c1C1CCN(CCCCc2noc3ccccc23)CC1 [Compound 19d, 3-[4-(4-(2,6-Dichlorophenyl)-1-piperidyl)-1-butyl]-1,2-benzisoxazol]",4.4
5,"c1ccc(CCCCN2CCC3(CC2)OCc2ccccc23)cc1 [Compound 2a, 1'-(4-Phenyl-1-butyl)spiro[isobenzofuran-1(3H),4'-piperidine]]",0.25
6,"c1ccc2c(c1)COCC21CCN(CCCCc2c[nH]c3ccccc23)CC1 [Compound 2v, 1'-[4-(3-Indolyl)-1-butyl]-spiro[1H-2-benzopyran-4(3H),4'-piperidine]]",1.8
7,O=C1N(CCN2CCC3(CC2)OCc2ccccc23)CCN1c1ccccc1 [Compound 3b],4.8
8,c1ccc2c(c1)COC21CCN(CCCSc2csc3ccccc23)CC1 [Compound 31a],0.23
9,"c1csc(-n2cc(CCCCN3CCC4(CC3)OCc3ccccc34)c3ccccc32)c1 [Compound 5d, 1'-[4-[1-(2-Thienyl)-3-indolyl]-1-butyl]spiro[isobenzofuran-1(3H),4'-piperidine]]",0.24
10,"c1ccc(SCCCN2CCC3(CC2)OCc2ccccc23)cc1 [Compound 2p, 1'-(3-Phenylthio-1-propyl)spiro[isobenzofuran-1(3H),4'-piperidine]]",0.32
11,"c1ccc2c(c1)COCC21CCN(CCCCCCc2c[nH]c3ccccc23)CC1 [Compound 2y, 1'-[6-(3-Indolyl)-1-hexyl]-spiro[1H-2-benzopyran-4(3H),4'-piperidine]]",0.84
12,Fc1ccc(-n2cc(OCCCN3CCC4(CC3)OCc3ccccc34)c3cc(Cl)ccc32)cc1 [Compound 8c],0.66
13,"Fc1ccc2occ(COCCN3CCC4(CC3)OCc3ccccc34)c2c1 [Compound 35b, 1'-[2-(5-Fluorobenzofuran-3-ylmethyloxy)-1-ethyl]spiro[isobenzofuran-1(3H),4'-piperidine]]",2.8
14,"Fc1ccc(-n2cc(CCCCN3CCC4(CC3)SCc3ccccc34)c3ccccc32)cc1 [Compound 9c, 1'-[4-[1-(4-Fluorophenyl)-3-indolyl]-1-butyl]spiro[benzo[c]thiophene-1(3H),4'-piperidine]]",0.14
15,"C1=C(CCCCN2CCC3(CC2)OCc2ccccc23)c2ccccc2C1 [Compound 27, 1'-(4-(1H-Inden-3-yl)-1-butyl)-spiro[isobenzofuran-1(3H) ,4'-piperidine]]",0.11
16,"FC(F)(F)c1ccc2[nH]nc(CCCCN3CCC4(CC3)OCc3ccccc34)c2c1 [Compound 18a, 1'-[4-(5-Trifluoromethylindazol-3-yl)-1-butyl]-spiro[isobenzofuran-1(3H),4'-piperidine]]",0.56
17,"c1ccc2c(c1)COC21CCN(CCCOC2CCCCC2)CC1 [Compound 2j, 1'-(3-Cyclohexyloxy-1-propyl)spiro[isobenzofuran-1(3H),4'-piperidine]]",0.07
18,"Clc1cc2[nH]cc(CCCCN3CCC4(CC3)OCc3ccccc34)c2cc1Cl [Compound 2z, 1'-[4-(5,6-Dichloro-3-indolyl)-1-butyl]-spiro[isobenzofuranr-1(3H) ,4'-piperidine]]",1.5
19,"c1ccc2c(c1)COC1(CCN(CCCCc3noc4ccccc34)CC1)C2 [Compound 19c, 1-(4-(1,2-Benzisoxazol-3-yl)-1-butyl)spiro[3H-2-benzopyran-3,4'-piperidine]]",0.84

row,SMILES,IC50 [nM]
1,"Cc1ccc2c(c1)COC21CCN(CCCCc2cn(-c3ccc(F)cc3)c3ccccc23)CC1 [Compound 9h, 1'-[4-[1-(4-Fluorophenyl)-3-indolyl]-1-butyl]-5-methylspiro[isobenzofuran-1(3H),4'-piperidine]]",2.3
2,"Fc1ccc2c(c1)C(CCCCN1CCC3(CC1)OCc1ccccc13)CO2 (stereo not shown) [Compound 12, 1'-(4-(2,3-Dihydro-5-fluoro-benzofuran-3-yl)-1-butyl]-spiro[isobenzofuran-1(3H),4'-piperidine]]",0.3
3,"c1ccc2c(c1)COC21CCN(CCCCc2csc3ccccc23)CC1 [Compound 10a, 1'-(4-(Benzo[b]thiophen-3-yl)-1-butyl)spiro[isobenzofuran-1(3H),4'-piperidine]]",0.09
4,"CCCCCN1CCC2(CC1)OCc1ccccc12 [Compound 1b, 1'-Pentylspiro[isobenzofuran-1(3H),4'-piperidine]]",3.7
5,"Fc1ccc(C2CCN(CCCCc3c[nH]c4cc(Cl)c(Cl)cc34)CC2)cc1 [Compound 2ee, 5,6-Dichloro-3-[4-(4-(4-fluorophenyl)-1-piperidyl)-1-butyl]-indole]",1
6,"c1ccc2c(c1)COC1(CCN(CCCCc3csc4ccccc34)CC1)C2 [Compound 10b, 1,4-Dihydro-1'-(4-(benzo[b]thiophen-3-yl)-1-butyl)spiro[3H-2-benzopyran-3,4'-piperidine]]",1.3
7,"c1cncc(-n2cc(CCCCN3CCC4(CC3)COCc3ccccc34)c3ccccc32)c1 [Compound 9k, 1'-[4-[1-(3-Pyridinyl)-3-indolyl]-1-butyl]spiro[1H-2-benzopyran-4(3H), 4'-piperidine]]",0.92
8,"c1ccc2c(c1)COC21CCN(CCCOc2csc3ccccc23)CC1 [Compound 34, 1'-[3-(Benzo[b]thiophen-3-yloxy)-1-propyl]spiro[isobenzofuran-1(3H),4'-piperidine]]",0.27
9,"c1ccc2c(c1)COCC21CCN(CCCCCc2c[nH]c3ccccc23)CC1 [Compound 2x, 1'-[5-(3-Indolyl)-1-pentyl]-spiro[1H-2-benzopyran-4(3H),4'-piperidine]]",1.6
10,"CS(=O)(=O)n1cc(CCCCN2CCC3(CC2)OCc2ccccc23)c2ccccc21 [Compound 6a, 1'-(4-(1-Methanesulfonyl-3-indolyl)-1-butyl)spiro[isobenzofuran-1(3 H),4'-piperidine]]",0.05
11,"Fc1ccc(-n2cc(CCCCN3CCC4(CC3)COCc3ccccc34)c3ccccc32)cc1 [Compound 9a, 1'-[4-[1-(4-Fluorophenyl)-3-indolyl]-1-butyl]spiro[1H-2-benzopyran-4(3H), 4'-piperidine]]",0.34
12,"c1ccc2c(c1)COC21CCN(CCCCc2cn(-c3nccs3)c3ccccc23)CC1 [Compound 9q, 1'-[4-(1-(2-Thiazolyl)-3-indolyl)-1-butyl]spiro[isobenzofuran-1(3H) ,4'-piperidine]]",0.12
13,"CCCN1CCC2(CC1)OCc1ccccc12 [Compound 4a, 1'-Propyl-spiro[isobenzofuran-1(3H),4'-piperidine]]",23
14,"OC(CCCN1CCC2(CC1)OCc1ccccc12)c1ccc(F)cc1 (stereo not shown) [Compound 26a, 1'-[4-(4-Fluorophenyl)-4-hydroxy-1-butyl]-spiro[isobenzofuran-1(3H),4'-piperidine]]",0.89
15,"Fc1ccc(-n2cc(CCCCN3CCC4(CC3)Cc3ccccc3CO4)c3ccccc32)cc1 [Compound 5b, 1,4-Dihydro-1'-[4-[1-(4-Fluorophenyl)-3-indolyl]-1-butyl]spiro[3H-2-benzopyran-3,4'-piperidine]]",1.1
16,"Fc1ccc(-n2cc(OCCN3CCC4(CC3)OCc3ccccc34)c3cc(Cl)ccc32)cc1 [Compound 14a, 1'-[2-[5-Chloro-1-(4-fluorophenyl)-3-indolyloxy]-1-ethyl]spiro[isobenzofuran-1(3H)piperidine]]",24
17,"c1ccc2c(c1)COC21CCN(CCCCc2noc3ccccc23)CC1 [Compound 19a, 1'-(4-(1,2-Benzisoxazol-3-yl)-1-butyl)spiro[isobenzofuran-1(3H) ,4'-piperidine]]",0.08
18,"CCCCCCCCCCCCCCCCCCN1CCC2(CC1)OCc1ccccc12 [Compound 4g, 1'-Octadecanyl-spiro[isobenzofuran-1(3H),4'-piperidine]]",46
